Values of other authors, collected in paper PMC7503629, “Synthesis and Biological Studies on Dinuclear Gold(I) Complexes with Di-(N-Heterocyclic Carbene) Ligands Functionalized with Carbohydrates” (Molecules, 2020).

Parameters: method as in doi:10.1002/ejic.201700768
Conditions: attributed to low mitochondrial penetration; cited from earlier work

[Au(magi)Cl] (magi = 1-methyl-3-(2,3,4,6-tetra-O-acetyl-β-D-glucopyranosyl)imidazole-2-ylidene)
antiproliferative activity (in words): inertness
